Here are results for 32 compounds from US20240262803A1, “COMPOUNDS, COMPOSITIONS AND METHODS OF TREATING DISORDERS” (Chungdu Anticancer Bioscience Ltd, priority 2021, published 2024).

For test [1], the system named is RPEMYC^H2B-GFP cells. The test can be described thus: Mechanism-informed phenotypic screening assay (mitotic arrest, polyploidy; GE IN-Cell Analyzer 2000). It is filed as cell-based. The settings on record: 20 nM to 20 μM, 24, 48 or 72 hours, read-out: Mitotic Arrest (≥5%).
Test [2] deals with RPEMYC^H2B-GFP cells. Described as above. It is filed as cell-based. The following applies: 20 nM to 20 μM, 24, 48 or 72 hours; for minimal effective concentration: read-out: Min. Effective conc. for polyploidy (≥5%). The procedure:
We have Previously Developed a Mechanism-Informed Phenotypic Screening Assay to identify novel antimitotic agents (Li et al. 2019). Equipped with a prior understanding of the versatile functions of the chromosomal passenger protein (CPP) complex in orchestrating karyokinesis and cytokinesis, the screening assay is to score for phenotypes typically seen when the CPP complex is disabled. Specifically, the parameters for a positive hit are a temporary elevation of mitotic index (MI) at 24 hours of drug treatment and an accumulation of polyploid cells at 48 hours of drug treatment, indicative of mitotic arrest and cytokinetic failure respectively. These parameters exclude compounds that elicit only a prolonged arrest of cells in mitosis, a phenotype typically provoked by spindle toxins. The screening procedure is briefly summarized here. RPEMYC^H2B-GFP cells engineered to express a Histone 2B-EGFP fusion protein were passaged as batches of 96-well plates, 18-24 hours before exposure to the chemical compounds of the present disclosure at concentrations from 20 nM to 20 μM. At 24, 48 or 72 hours after initiation of treatment, cells were analyzed for either an arrest in mitosis or a change in DNA content by GE IN-Cell Analyzer 2000. As set forth in table 2 below, a value of greater than or equal to […] and less than or equal to 1.0 μM is marked e “A”; a value greater than […] and less than or equal to 10.0 μM is marked “B”; a value greater than 10.0 μM and less than or equal to 30.0 μM is marked “C”; and a value greater than 30.0 μM is marked “D.”

SMILES strings stand for the structures. Like-named read-outs stand apart in the source and are kept apart here.

Take `COc1cc(OC)cc(Oc2ncccc2-c2ccnc(N)c2)c1` [Compound 61, 2-(3,5-dimethoxyphenoxy)-[3,4′-bipyridin]-2′-amine]: the minimal effective concentration in test [1] and in test [2] was 1 µM throughout.
Take `COc1cc(OC)cc(Oc2nccnc2-c2ccncc2)c1` [Compound 15, 2-(3,5-dimethoxyphenoxy)-3-(pyridin-4-yl)pyrazine]: the minimal effective concentration in test [1] and in test [2] was 1 µM in each case.
Consider `COc1cc(OC)cc(Oc2ncccc2-c2ccccc2)c1` [Compound 55, 2-(3,5-dimethoxyphenoxy)-3-phenylpyridine], for which the minimal effective concentration in test [1] and in test [2] was 0.001 to 10 µM throughout.
For `COc1cc(OC)cc(Oc2nccnc2-c2cccnc2)c1` [Compound 50], the minimal effective concentration in test [1] and in test [2] was 1 µM in each case.
On to `COc1cc(OC)cc(Oc2ncccc2-c2cc(OC)ncn2)c1` [Compound 60, 4-(2-(3,5-dimethoxyphenoxy)pyridin-3-yl)-6-methoxypyrimidine], for which the minimal effective concentration in test [1] and in test [2] was 1 µM in each case.
On to `COc1cc(OC)cc(Oc2nccnc2-c2cc(OC)cc(OC)c2)c1` [Compound 59, 2-(3,5-dimethoxyphenoxy)-3-(3,5-dimethoxyphenyl)pyrazine], for which the minimal effective concentration in test [1] and in test [2] was 0.001 to 10 µM in each case.
Take `COc1cc(OC)cc(Oc2cncc(-c3cccc(F)c3)n2)c1` [Compound 83, 2-(3,5-dimethoxyphenoxy)-6-(3-fluorophenyl)pyrazine]: the minimal effective concentration in test [1] and in test [2] was over 30 µM in each case.
On to `CCOc1cc(Oc2ncccc2-c2ccnc(C(F)(F)F)c2)cc(C(=O)NC)c1` [Compound 67, 3-ethoxy-N-methyl-5-((2′-(trifluoromethyl)-[3,4′-bipyridin]-2-yl)oxy)benzamide], for which the minimal effective concentration in test [1] and in test [2] was 0.001 to 10 µM each time.
Turning to `COc1cc(OC)cc(Oc2ncccc2-c2ccnc(Cl)n2)c1` [Compound 84, 2-chloro-4-(2-(3,5-dimethoxyphenoxy)pyridin-3-yl)pyrimidine], the minimal effective concentration in test [1] is 10 to 30 µM; in test [2], over 30 µM.
On to `COc1cc(OC)cc(Oc2ncccc2-c2ccncc2N)c1` [Compound 65, 2-(3,5-dimethoxyphenoxy)-[3,4′-bipyridin]-3′-amine], for which the minimal effective concentration in test [1] and in test [2] was 0.001 to 10 µM each time.
In the case of `CNC(=O)c1cc(Oc2ncccc2-c2ccnc(C)c2)cc(-n2cccn2)c1` [Compound 88, N-methyl-3-((2′-methyl-[3,4′-bipyridin]-2-yl)oxy)-5-(1H-pyrazol-1-yl)benzamide], the minimal effective concentration in test [1] and in test [2] was 1 µM each time.
`CCOCCOc1cc(-c2cccnc2Oc2cc(NC(C)=O)cc(OC)c2)ccn1` [Compound 87, N-(3-((2′-(2-ethoxyethoxy)-[3,4′-bipyridin]-2-yl)oxy)-5-methoxyphenyl)acetamide]: the minimal effective concentration in test [1] and in test [2] was 1 µM each time.
As to `CCOCCOc1cc(-c2cccnc2Oc2cc(OC)cc(C(=O)NC)c2)ccn1` [Compound 85, 3-((2′-(2-ethoxyethoxy)-[3,4′-bipyridin]-2-yl)oxy)-5-methoxy-N-methylbenzamide], the minimal effective concentration in test [1] and in test [2] was 1 µM in each case.
In the case of `COc1cc(OC)cc(Oc2ncccc2-c2ccnc(Cl)c2)c1` [Compound 44, 2′-chloro-2-(3,5-dimethoxyphenoxy)-3,4′-bipyridine], the minimal effective concentration in test [1] and in test [2] was 1 µM each time.
As to `COc1cc(Oc2ncccc2-c2ccnc(C)c2)cc(C(=O)NC2CC2)c1` [Compound 98, N-cyclopropyl-3-methoxy-5-((2′-methyl-[3,4′-bipyridin]-2-yl)oxy)benzamide], the minimal effective concentration in test [1] and in test [2] was 1 µM each time.
Regarding `COc1cc(OC)cc(Oc2cncc(-c3ccccc3)n2)c1` [Compound 81, 2-(3,5-dimethoxyphenoxy)-6-phenylpyrazine], the minimal effective concentration in test [1] and in test [2] was 0.001 to 10 µM each time.
Turning to `CNC(=O)c1cc(Oc2ncccc2-c2ccnc(C)c2)cc(-c2cnn(C)c2)c1` [Compound 89, N-methyl-3-(1-methyl-1H-pyrazol-4-yl)-5-((2′-methyl-[3,4′-bipyridin]-2-yl)oxy)benzamide], the minimal effective concentration in test [1] and in test [2] was 1 µM in each case.
Consider `COc1cc(Oc2ncccc2-c2ccnc(C)c2)cc(O[C@H]2CCOC2)c1` [Compound 95, (S)-2-(3-methoxy-5-((tetrahydrofuran-3-yl)oxy)phenoxy)-2′-methyl-3,4′-bipyridine], for which the minimal effective concentration in test [1] and in test [2] was 1 µM each time.
Turning to `CCOc1cc(Oc2ncccc2-c2ccncc2)cc(C(=O)NC)c1` [Compound 6, 3-([3,4′-bipyridin]-2-yloxy)-5-ethoxy-N-methylbenzamide], the minimal effective concentration in test [1] and in test [2] was 1 µM throughout.
`CNC(=O)c1cc(OC)cc(Oc2ncccc2-c2ccnc(N)n2)c1` [Compound 25, 3-((3-(2-aminopyrimidin-4-yl)pyridin-2-yl)oxy)-5-methoxy-N-methylbenzamide]: the minimal effective concentration in test [1] and in test [2] was 1 µM throughout.
Turning to `CNC(=O)c1cc(OC)cc(Oc2ncccc2-c2cccc(F)c2)c1` [Compound 92, 3-((3-(3-fluorophenyl)pyridin-2-yl)oxy)-5-methoxy-N-methylbenzamide], the minimal effective concentration in test [1] and in test [2] was 1 µM each time.
`CNC(=O)c1cc(Oc2ncccc2-c2ccncc2)cc(OC2CCOC2)c1` (stereo not shown) [Compound 101, 3-([3,4′-bipyridin]-2-yloxy)-N-methyl-5-((tetrahydrofuran-3-yl)oxy)benzamide]: the minimal effective concentration in test [1] and in test [2] was 1 µM each time.
Turning to `COc1cc(Oc2ncccc2-c2ccncc2)cc(C(=O)NC2CC2)c1` [Compound 100, 3-([3,4′-bipyridin]-2-yloxy)-N-cyclopropyl-5-methoxybenzamide], the minimal effective concentration in test [1] and in test [2] was 1 µM throughout.
On to `COc1cc(OC)cc(Oc2ncccc2-c2cccnc2)c1` [Compound 47, 2-(3,5-dimethoxyphenoxy)-3,3′-bipyridine], for which the minimal effective concentration in test [1] and in test [2] was 1 µM throughout.
`COc1cc(OC)cc(Oc2ncccc2-c2ccnc(SC)n2)c1` [Compound 62, 4-(2-(3,5-dimethoxyphenoxy)pyridin-3-yl)-2-(methylthio)pyrimidine]: the minimal effective concentration in test [1] and in test [2] was 0.001 to 10 µM throughout.
In the case of `CNc1cc(-c2cccnc2Oc2cc(OC)cc(OC)c2)ncn1` [Compound 64, 6-(2-(3,5-dimethoxyphenoxy)pyridin-3-yl)-N-methylpyrimidin-4-amine], the minimal effective concentration in test [1] and in test [2] was 0.001 to 10 µM each time.
Turning to `COc1cc(Oc2ncccc2-c2ccncc2)cc(C(=O)N(C)C)c1` [Compound 5, 3-([3,4′-bipyridin]-2-yloxy)-5-methoxy-N,N-dimethylbenzamide], the minimal effective concentration in test [1] and in test [2] was 0.001 to 10 µM each time.
Consider `COc1cc(Oc2ncccc2-c2ccncc2)cc(-c2nc(C)no2)c1` [Compound 11, 5-(3-([3,4′-bipyridin]-2-yloxy)-5-methoxyphenyl)-3-methyl-1,2,4-oxadiazole], for which the minimal effective concentration in test [1] and in test [2] was 1 µM throughout.
Regarding `CNC(=O)c1cc(OC)cc(Oc2ncccc2-c2ccnc(C(F)(F)F)c2)c1` [Compound 66, 3-methoxy-N-methyl-5-((2′-(trifluoromethyl)-[3,4′-bipyridin]-2-yl)oxy)benzamide], the minimal effective concentration in test [1] and in test [2] was 1 µM in each case.
On to `COc1cc(OC)cc(Oc2ncccc2-c2cc(OC)cc(OC)c2)c1` [Compound 58, 2-(3,5-dimethoxyphenoxy)-3-(3,5-dimethoxyphenyl)pyridine], for which the minimal effective concentration in test [1] and in test [2] was 1 µM throughout.
With `CNC(=O)c1cc(OC)cc(Oc2ncccc2-c2cc(C)nc(C)c2)c1` [Compound 99, 3-((2′,6′-dimethyl-[3,4′-bipyridin]-2-yl)oxy)-5-methoxy-N-methylbenzamide], the minimal effective concentration in test [1] and in test [2] was 1 µM throughout.
As for `COc1cc(NC(C)=O)cc(Oc2ncccc2-c2ncccn2)c1` [Compound 93, N-(3-methoxy-5-((3-(pyrimidin-2-yl)pyridin-2-yl)oxy)phenyl)acetamide], in test [2], the “Min. Effective conc. for polyploidy (≥5%)” value is “inactive” and the “Mitotic Arrest (≥5%)” value is “inactive”.
